Assay results from patent US20020015942A1, “Method for cancer screening” (priority 1996, published 2002).

Legend:
A10 cells [1] = system: A10 cells
Protocol: A10 cells were stained with acridine orange at different times after exposure to hydrogen peroxide (0.2 mM) and at least 500 cells were scored at each time interval to obtain the above graph. Lines 1-4 represent the frequency of apoptotic nuclei having characteristic fluorescence patterns.
Acridine orange and DAPI staining: Cells grown on glass coverslips were stained for 3-4 minutes in 100 μg/ml acridine orange (Sigma Chemicals Ltd) dissolved in HBSS; coverslips were rinsed briefly in HBSS and mounted in HBSS [19]. Cells were examined immediately in a Zeiss Axioskop fluorescence microscope equipped with filter #9 and epi-illumination. Double stranded DNA fluoresces green while single-stranded RNA and DNA fluoresce red after staining with acridine orange. In most of the experiments, endoapoptosis was scored by the presence of the endoapoptotic nuclei (mini cells) in very early (bright green fluorescence), mid phase (red fluorescence), late phase (no specific fluorescence) or the presence of a ‘ghost’ with no nuclear matrix, with or without fragmentation of the mini cells.

A10 cells [2] = settings: hydrogen peroxide-induced apoptotic cells
Protocol: Electron microscopy: For studying endoapoptosis in transformed foci, NIH3T3 cells were grown on Thermanox plastic coverslips and the cells were processed as monolayer by fixation with 2% glutaraldehyde in 0.1 M cacodylate buffer, pH 7.3, overnight at 5° C., and post-fixed with 1% osmium tetroxide acid. Cells were in block stained overnight in 0.5% aqueous uranyl acetate, dehydrated in acetone and embedded in Epon resin. Thin sections were cut, stained with uranyl acetate and lead citrate and viewed in a Philips 300 electron microscope. In some cases the monolayer of cells were scraped with rubber policeman after fixation and pelleted and processed for sectioning as above.

A10 cells [3] = experiment: Frequency of endoapoptotic bodies after incubation with cytochalasin B; type: cell-based, Rat; settings: 48 h, 2 μg/ml in culture medium
[4] = 0.02 mM hydrogen peroxide, acridine orange

SMILES	induction of classic apoptosis (A10 cells [1]; 0.02 mM hydrogen peroxide in the culture medium, followed over 24 hours)	persistence of red nuclear fluorescence (A10 cells [1]; [4]) [h]	time after apoptotic death until nuclei displayed red fluorescence (A10 cells [1]; [4]) [h]	temporal changes in nuclear fluorescence pattern compared with 0.2 mM (A10 cells [1]; 0.1 mM hydrogen peroxide, acridine orange)	nuclear changes in transmission electron microscopy (A10 cells [2])	effect on frequency of endoapoptotic bodies (A10 cells [3])
OO [hydrogen peroxide]	classic apoptosis was induced	3 to 6	2 to 3	induced similar changes with a 24 h delay	typical apoptotic changes in the nucleus such as chromatin marginization and condensation	–
C=C1[C@@H](C)[C@H]2[C@H](Cc3ccccc3)NC(=O)[C@]23OC(=O)/C=C/[C@H](O)CCC[C@@H](C)C/C=C/[C@H]3[C@@H]1O [cytochalasin B]	–	–	–	–	–	did not reduce the frequency of endoapoptotic bodies
